According to US8541607B2, “Disulfide, sulfide, sulfoxide, and sulfone derivatives of cyclic sugars and uses thereof” (Lacer, S.A., priority 2003, dated 2013):

Assays:
[1] = tested on: New Zealand White rabbits fed 1% cholesterol diet; assay: Atherogenesis in rabbits fed on high cholesterol diet; format: in vivo, rabbit
Procedure: The method used is substantially the same as described in Shore B, Shore V., In: Day CE (ed) Atherosclerosis Drug Discovery, Plenum Press, New York and London, pp 123-141, 1976.
Twenty-one male New Zealand White rabbits (10 weeks old at the beginning of the protocol) were maintained under standardized conditions (22° C., 40% to 60% humidity) with regular day/night cycle and free access to water. The animals were randomly assigned to 1 of 3 groups. Group 1 (n=5) received standard maintenance diet for 75 days; group 2 (n=16) received the same diet but supplemented with 1% (wt/wt) cholesterol for 45 days. At the end of this period, group 2 was classified into two randomly groups. The treated-group (n=9) receiving for additional 30 days 1.9 mg/kg/day of compound 12 (maintaining the 1% cholesterol in its diet), and the non-treated group (n=[…]) receiving a diet with a 1% of cholesterol for additional 30 days.
Study variables included triglycerides and total cholesterol. Animals were euthanized on day 75 after the start of the protocol with pentobarbital i.v. The entire aorta was removed 1 or 2 cm into the iliac arteries and fixed in buffer phosphate 0.1 M (pH 7.4) with glutaraldehyde (4%). Macroscopic and microscopic analyses of the samples were performed in a blinded fashion. Aortas were dissected and stained with Red Oil. Adventitial fat was removed, and aortas were opened longitudinally, immersed in Red Oil solution for overnight, washed in propylenglycol and fixed onto a flat surface. Images of the aortas were taken with a standard camera. Subsequently, 3 sections were taken from the aortic arch area, the thoracic aorta, and at the abdominal aorta (renal orifices). Sections were paraffin-embedded, were cut with a microtome Ultracut (Spain) and stained conventionally with hematosiline eosin. Images of aortas stained with Red Oil and hematosiline eosin were taken with a standard camera. Images were imported into Photoshop (Adobe) with a AGFA slide scanner. By means of the procedure previously described by Lillie RD (Lillie, R. D., 1994, Stain Technology, vol. 19, pp 55) the surface of injury in all the aorta and the thickness of the intima in histological samples was determined. The surface or area of the atherosclerotic injury (evaluated from the stained aortas with the Red Oil) are determined by the number of pixels of the image turned to mm^2. The intima thickness of the arteria (evaluated from the stained histological samples with Haematosiline-Eosin) was quantified in mm in a similar way to that described the surface or area of the atherosclerotic injury. For it, the sections that contained injuries of fatty striae were selected and the thickness of the intima was determined (from the arterial media to endothelium). The mean thickness of the lesion area was assessed in representative sections per aortic quadrant, and the statistical mean was calculated.

[2] = tested on: Rats, left carotid artery thrombosis (FeCl3); assay: In vivo synergistic antithrombotic effect, FeCl3 carotid artery thrombosis, single drugs and combinations; design: species or system rat; conditions: Compound 12 22.3 mg/Kg, oral, acute the day of study
Procedure: The method used is substantially the same as described by Kurz (Kurz K. D., at al., Thromb. Res. 1990, 60: 269-280) and modified by Feuerstein (Feuerstein G. Z., et al., Artherioscler, Thromb. Vasc. Biol. 1999, 19: 2554-25562). […]
Forty-five minutes after dosing administration, rats were anaesthetized with sodium pentobarbital (40 mg/kg, i.p.) and they were placed later dorsally on a heated (37° C.) surgical board.
The left carotid artery was isolated and a Parafilm M sheet (7×20 mm, American National Can) was placed under it. An electromagnetic sounding of flow (Transonic Systems Inc.) was placed on the artery to measure blood flow.
Sixty minutes after product administration, a paper patch saturated with FeCl3 solution (70%) was placed (and not removed for the whole duration of the experiment) on the left carotid artery downstream from the sounding of flow to initiate thrombosis. The blood flow was controlled during the 60 min later to the application of the patch in the artery.
The vessel was considered totally occluded by the thrombus formed when no blood flow was detected (0.0 ml/min). In this model, occlusive thrombus formation usually takes place within 15 to 20 minutes in non-treated animals.
The fractional product concept was used to identify synergy between the compounds. In accordance with this concept, if we consider the full protection of the animal as:
[formula] where A is the rate of animals with thrombotic occlusion in treated group; and B is the rate of animals with thrombotic occlusion in the control group.
For two drugs that act of independent way:
[formula] where A1 is the rate of animals with thrombotic occlusion in the treatment group A1; A2 is the rate of animals with thrombotic occlusion in the treatment group A2; and B is the rate of animals with thrombotic occlusion in the control group
If the protection obtained with the combination of the drugs is higher than the fractional inhibition for two compounds acting independently then synergism is considered to occur.
The results are shown in table 14 and are expressed as rate of animals with thrombotic occlusion in each group.

[3] = tested on: platelet adhesion to HUVEC activated by LDLmm; assay: Inhibition of platelet adhesion to HUVEC activated by LDLmm; format: cell-based, human; conditions: HUVEC activated by LDLmm (50 μg/ml); mean ± s.e.m.
Source text: The methods used in the assays to determine the effect of the compounds on platelet and monocyte adhesion to human endothelial cells are substantially the same as described in the following references: • Del Maschio A. et al., J Cell Biol 1996; 135: 497-510 • Bombeli T. et al., Blood 1999; 93: 3831-3838 • Colomé C. et al; Atherosclerosis 2000; 149: 295-302; and • Martin-Satue M. at al; British Journal of Cancer 1999; 80; 1169-1174
The adhesion of the U937-monocyte cells to confluent human microvasculature endothelial cells (HMEC-1) activated by means of TNF-α (50 ng/ml) and the platelets to human umbilical endothelial cells (HUVEC) were the methods used to determine the inhibitory effect of compounds on cellular adhesion. The adhesion of monocytes previously labeled with calcein-2M (Molecular Probes) to HMEC-1 activated by TNF-α, was assessed by determination of the associated-cell fluorescence. The adhesion of washed human platelets previously labeled with MoAb against CD36-FITC to activated-HUVEC (50 μg/ml of LDL minimally modified, LDLmm) was determined by Laser Scanning Cytometry (LSC, Olympus) determining the associated-cell fluorescence. Results are expressed as the percentage of inhibition respect to control (adhesion of the cells in the absence of compounds).

[4] = 1.9 mg/kg/day for 30 days, 1% cholesterol diet, end, mean ± s.e.m.
[5] = treated group, basal, mean ± s.e.m.

With CC(=O)S[C@H]1CO[C@H]2[C@@H]1OC[C@H]2O[N+](=O)[O-] [(12), 2-acetylthio-isosorbide-5-mononitrate] the “Plasmatic Total cholesterol, End” value [1, 4] was 1461 ± 147 mg/dL, the “Plasmatic Triglycerides, End” value [1, 4] was 347 ± 82 mg/dL and the “influence upon lipid metabolism (plasma lipids vs control)” value ([1]; 1.9 mg/kg/day for 30 days, in words) was “did not influence upon lipid metabolism”. The “Plasmatic Total cholesterol, Basal” value [1, 5] was 33.3 ± 4.1 mg/dL, the “Plasmatic Triglycerides, Basal” value [1, 5] was 121 ± 34 mg/dL and the “% of animals protected” value [2] was “(50%)”. For the same compound, the “Rate of animals with thrombotic occlusion” value ([2]; control 1) was 0.5 and the “% of inhibition to control, platelet adhesion” value [3] was 87.5% ± 5.1%.
